The subject of one experiment is T1, BC.
T1 construct: gene bgl1; single-polypeptide fusion HIS-Bgl1-Cel5A-STREP, Ser-Ser linker, tags kept; from E. coli M15[pREP4]; with Endoglucanase
As to the kind of experiment: 4-nitrophenol release, absorbance at […] nm. It counts as biochemical, uncultured archaeon. The settings on record: 10 mM NaPO4 pH 7.0, 80°C (standard assay); read-out: Substrate, 4-NP-β-D-GP / KM.

In another experiment the test system is T2, CB.
T2 construct: gene bgl1; single-polypeptide fusion HIS-Cel5A-Bgl1-STREP, Ser-Ser linker, tags kept; from E. coli M15[pREP4]; truncated STREP-tagged Bgl1 degradation products remain in eluate; with Endoglucanase
As to the kind of experiment: 4-nitrophenol release, absorbance at […] nm. To be noted: 10 mM NaPO4 pH 7.0, 80°C (standard assay); read-out: Substrate, 4-NP-β-D-GP / KM. It counts as biochemical, uncultured archaeon.

For `O=[N+]([O-])c1ccc(O[C@@H]2O[C@H](CO)[C@@H](O)[C@H](O)[C@H]2O)cc1` [4-NP-β-D-GP, 4-nitrophenyl-β-D-glucopyranoside], the Km with BC and with CB was 530 µM each time.

These data come from article PMC4460186, “Fast and reliable production, purification and characterization of heat-stable, bifunctional enzyme chimeras” (AMB Express, 2015).
